Results published in patent US20250031734A1, “COMPOSITIONS COMPRISING REBAUDIOSIDE J” (PepsiCo, Inc., priority 2016, published 2025).
Where a SMILES comes first, the peptide text is derived from it.

Assays:
sensory panelists = assay: Sweetness modifier test, control vs sample with 30 ppm rebaudioside J (Example 6A); assay type: in vivo, human; conditions: sweetener plus 30 ppm rebaudioside J vs sweetener alone; about 5% SEV / 5 degrees Brix; pH 3.1 phosphate buffer; 13 to 16 panelists
Description: The ability of rebaudioside J to modify the sweetness of natural and artificial sweeteners was assessed by comparing the sweetness of control samples without rebaudioside J to the sweetness of samples containing a mixture of the natural or artificial sweetener being tested and rebaudioside J. Control solutions were prepared by dissolving sucrose, HFCS, acesulfame-K, aspartame, and sucralose in pH 3.1 phosphate buffer. […] Sucrose and high fructose corn syrup (HFCS) were prepared as 5 degrees Brix solutions. This concentration was confirmed with an Anton Paar refractometer. […] Experimental samples were identical to control samples except for the addition of 30 ppm rebaudioside J. Tasting Protocol: The number of sensory panelists ranged from 13 to 16 for all sweeteners tested. Panelists were provided with a control sample prepared as described above. Panelists were also provided with an otherwise identical experimental sample prepared as described above. Panelists were asked to determine which sample tasted sweeter. […] Panelists wore nose clips and were blinded to the identity of the samples. Sensitivity index, also referred to as a “d' score” was calculated using known statistical methods.

human sense of taste = assay: Sweetness recognition threshold comparison with 1.5% sucrose; assay type: in vivo; conditions: rebaudioside J 40 ppm
Excerpt: The term “sweetness recognition threshold concentration,” as generally used herein, is the lowest known concentration of a given sweetener or combination of sweeteners recognized as sweet by the human sense of taste, typically about 1.5% sucrose equivalence.

panelists = assay: Benchtop sweetness ranking on 1-10 scale against rebaudioside A 400 ppm and sucrose 6.5% (Example 3); assay type: in vivo, human; conditions: 400 ppm
Description: Sample preparation: 4 degrees Brix HFCS control solution was prepared by adding 50.89 grams of 78.60 degrees Brix HFCS to 1000 g phosphoric acid base which was prepared by adding phosphoric acid dropwise into 1 L of AQUAFINA water until a pH of 3.1 was observed on a calibrated METTLER TOLEDO PH meter.
For some low soluble compounds, Branson 2800 Ultra Sonic Bath was used to dissolve the material. If any cloudiness persisted, the sample solution was passed through a paper filter. Solubility was confirmed by shining a laser pointer through the solution. If no diffraction was observed then it was assumed that the material was soluble.
Preparation of Rebaudioside A for Sensory Evaluation: 400 ppm rebaudioside A in water (pH=7) was prepared by dissolving 40 mg of rebaudioside A with stirring in 100 mL of water at room temperature.
Preparation of Sucrose for Sensory Evaluation: 6.5% sucrose in water (pH=7) was prepared by adding 6.5 g of sucrose and dissolving it in 93.5 g water (total 100 gr).
Tasting Protocol: Panelists were presented with two numbered samples and asked to note the sweet quality differences between the two samples. Panelists commented on sweetness onset, sweetness linger, overall sugar-like sweetness, and other qualities, such as bitter taste, metallic note, astringency, cooling sensation, any off-notes, and any associated flavors. […]

[1] = system: trained sensory panelists; assay: Adaptation, sweetness and bitterness over time (Example 4B); assay type: in vivo, human
Description: Three evaluations (replicates) were obtained from each panelist for each evaluation, and a total of 30 judgments were obtained for each sample. The samples were evaluated for sweetness and bitterness. Samples were presented blind and coded with random three-digit numbers.
Each panelists took a sip, swirled the sample in his or her mouth for 10 seconds, expectorated and subsequently rated sweetness intensity and bitterness intensity using a 15-point line scale. Panelists repeated this procedure every 30 seconds for 3 minutes. After rinsing 6 times with water, the panelists were given a new sample and that sample was evaluated using the procedure described above

[2] = system: trained sensory panelists; assay: Targeted descriptive analysis (Example 4C); assay type: in vivo, human; conditions: vs rebaudioside A
Description: Panelists participated in an orientation session to familiarize themselves with sample set. They reviewed aroma, taste, flavor, and texture to determine the attributes most important for describing and differentiating the samples. These attributes were used to develop the ballot for the test evaluations. Three evaluations (replicates) were obtained from each panelist for each evaluation, and a total of 30 judgments were obtained for each sample. 45 mL of each sample was served in a sequential monadic presentation. The serving order was balanced for each panelist. For each test sample, the panelists indicated the intensity of each sensory attribute (labeled with a 3-digit number) on a 15-point line scale.

[3] = system: trained sensory panelists; assay: Dose response, trained sensory panel, 15-point line scale (Example 4A); assay type: in vivo, human; conditions: eight concentrations 11.13-625.61 ppm
Description: Eight concentrations of rebaudioside J with one blank solution were evaluated (Table 1). Trained sensory panelists participated in an orientation session to familiarize themselves with sample set. Three evaluations (replicates) were obtained from each panelist for each evaluation, and a total of 30 judgments were obtained for each sample.
The panelists were served 10 mL portions of each sample. A 10-minute break was taken between samples. To determine sweetness intensity, the panelists were provided sucrose-containing sweetness intensity reference samples for intensities 5, 8, and 10. For each test sample, the panelists indicated the sweetness intensity of the test sample (labeled with a 3-digit number) on a 15-point line scale.

[4] = rated every 30 seconds for 3 minutes, 15-point line scale

SMILES: CC1=CC(=O)NS(=O)(=O)O1 [Acesulfame potassium]
- Panelist reporting Rebaudioside J increased sweetness (%) (sensory panelists): 85%
- d' Score (sensory panelists): 2.30

SMILES: COC(=O)[C@H](Cc1ccccc1)NC(=O)[C@@H](N)CC(=O)O [Aspartame, aspartame] (H-Asp-Phe-OMe)
- Panelist reporting Rebaudioside J increased sweetness (%) (sensory panelists): 86%
- d' Score (sensory panelists): 2.13

SMILES: C=C1C[C@@]23CC[C@H]4[C@@](C)(CCC[C@@]4(C)C(=O)O[C@@H]4O[C@H](CO)[C@@H](O)[C@H](O)[C@H]4O[C@@H]4O[C@@H](C)[C@H](O)[C@@H](O)[C@H]4O)[C@@H]2CC[C@]1(O[C@@H]1O[C@H](CO)[C@@H](O)[C@H](O[C@@H]2O[C@H](CO)[C@@H](O)[C@H](O)[C@H]2O)[C@H]1O[C@@H]1O[C@H](CO)[C@@H](O)[C@H](O)[C@H]1O)C3 [Rebaudioside J, rebaudioside J]
- sweetness compared with 1.5% sucrose (sweetness recognition threshold) (human sense of taste): less sweet than 1.5% sucrose
- panelists' notes on taste characteristics (panelists): lack of bitterness, sugar-like, syrupy and round characteristics
- sweetness score on scale of 1-10 (FIG. 3) (panelists; rebaudioside A 400 ppm assigned 5, sucrose 6.5% assigned 10, noseclips, blinded): 6.7
- bitterness intensity over time (FIG. 5) [1, 4]: remains low
- sweetness intensity over time (FIG. 5) [1, 4]: decreases over time
- bitterness over time compared with rebaudioside A (FIG. 7) ([1]; vs rebaudioside A): less bitter than rebaudioside A
- bitterness compared with rebaudioside A (FIG. 6) ([2]; 15-point line scale): less bitter
- chemical/artificial taste compared with rebaudioside A (FIG. 6) ([2]; 15-point line scale): less chemical/artificial taste than rebaudioside A
- overall impression compared with rebaudioside A (FIG. 8) [2]: scored higher in overall impression than rebaudioside A
- bitterness intensity (FIG. 4) [3]: low and only increased slightly with increasing concentration
- sweetness intensity (FIG. 4) [3]: increases with increasing concentration

SMILES: OC[C@H]1O[C@H](O[C@]2(CCl)O[C@H](CCl)[C@@H](O)[C@@H]2O)[C@H](O)[C@@H](O)[C@H]1Cl [Sucralose, sucralose]
- Panelist reporting Rebaudioside J increased sweetness (%) (sensory panelists): 89%
- d' Score (sensory panelists): 2.44

SMILES: OC[C@H]1O[C@@](CO)(O[C@H]2O[C@H](CO)[C@@H](O)[C@H](O)[C@H]2O)[C@@H](O)[C@@H]1O [Sucrose, sucrose]
- Panelist reporting Rebaudioside J increased sweetness (%) (sensory panelists): 85%
- d' Score (sensory panelists): 2.00
